Data published in patent US20240368163A1, “COMPOUNDS AND METHODS FOR MODULATING SPLICING” (REMIX THERAPEUTICS INC., priority 2021, published 2024).
pIC50: −log10 of the molar value. Where two headings read alike, the source gives them in different places.

Legend:
HTT = assay: Splicing RT-qPCR assay, HTT mRNA canonical junction (CJ) and alternative junction (AJ); type: cell-based, human; settings: for AC50: increase in AJ mRNA
Method in brief: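 A673 or K562 cells were treated 24 h at 37 °C with an 11-point 3-fold dilution series (top 10 uM final, DMSO ≤0.25%). Lysates underwent one-step RT-qPCR for canonical (CJ) and alternative (AJ) junctions; Ct normalized to GAPDH, GUSB or PPIA and DMSO control via 2^(−ΔΔCt), expressed as percentage response.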

[1] = Transwell assay for membrane efflux and permeability; type: in vitro ADME, Canine; settings: dog; MDCK-BCRP or MDCKII-MDR1 transwell, test compound 1 μM, 2 hours at 37° C.
Source text: Compounds described herein were screened for cell membrane permeability and efflux in a transwell assay using Madin-Darby Canine Kidney (MDCK) cells expressing Breast Cancer Resistance Protein (BCRP) or subclone MDCKII cells expressing Multidrug Resistance Protein 1 (MDR1).
MDCK-BCRP or MDCKII-MDR1 Cells: The Netherlands Cancer Institute, High Glucose Dulbecco's Modified Eagle's Medium (DMEM): Gibco/Thermo Fisher Scientific, Fetal Bovine Serum (FBS): Coming, Hank's Balanced Salt Solution (HBSS) and Trypsin/EDTA: Gibco/Thermo Fisher Scientific, HTS Transwell-96 Well Permeable Supports: Coming Corporation, Millicell Epithelial Volt-Ohm: Millipore, Cellometer® Vision: Nexcelom Bioscience LLC, Infinite 200 PRO microplate reader: Tecan, MTS2/4 orbital shaker: IKA Labortechnik, HEPES/Penicillin/Streptomycin: Solarbio.
MDCK-BCRP or MDCKII-MDR1 cells were seeded to each of the wells of the transwell plate at a density of 1.6×10^6 cells/mL and the plate was incubated for 4-8 days with medium changes every two days. To perform the drug transport assay, cell monolayers were first washed three times with pre-warmed HBSS and then incubated with gentle shaking (150 rpm) for 30 min at 37° C. Stock solutions of test compounds (e.g., exemplary compounds of Formulas (I), (II), and (III)) and control compounds (e.g., metoprolol, prazosin, and/or imatinib) were prepared in DMSO and adjusted to a working solution using HBSS. The final concentration of test compounds was 1 μM with DMSO; 0.5%. The plates were incubated at 37° C. for 2 hours.

[2] = Homo sapiens, 24 h, A673 or K562 cells, 24 hours treatment, RT-qPCR
[3] = Homo sapiens, RT-qPCR panel, canonical junction mRNA, compound concentration having 50% response in CJ decrease, read-out: HTT IC50 (decrease in CJ mRNA levels)
[4] = Homo sapiens, 24 h, decrease in CJ mRNA, A673 or K562 cells, 24 hours treatment, RT-qPCR, read-out: HTT CJ IC50

Row | Structure (SMILES) | AC50 (HTT; [2]) [nM] | pIC50 (HTT; [3]) | Papp at 2 h, 1 μM [1] [×10⁻⁶ cm/s] | efflux ratio at 2 h, 1 μM [1] | pIC50 (HTT; [4]) | pIC50 (HTT; RT-qPCR panel, canonical junction mRNA, compound concentration having 50% response in CJ decrease, read-out: HTT IC50 (decrease in CJ mRNA levels))
1 | CN(c1ccc(-c2cc(F)c(-c3cn[nH]c3)c3cn[nH]c23)nn1)[C@@H]1C[C@H]2CC(F)(F)[C@@H](C1)N2 (stereo in doubt) [Compound 378, 6,6-difluoro-N-{6-[5-fluoro-4-(1H-pyrazol-4-yl)-1H-indazol-7-yl]pyridazin-3-yl}-N-methyl-8-azabicyclo[3.2.1]octan-3-amine] | < 100 | > 7.00 | 2 to 6 | > 5 | – | –
2 | CN(c1ccc(-c2ccc(-c3cn[nH]c3)c3ncsc23)nn1)[C@@H]1C[C@H]2CC(F)(F)[C@@H](C1)N2 (stereo in doubt) [Compound 379, 6,6-difluoro-N-methyl-N-{6-[4-(1H-pyrazol-4-yl)-1,3-benzothiazol-7-yl]pyridazin-3-yl}-8-azabicyclo [3.2.1]octan-3-amine] | < 100 | > 7.00 | 2 to 6 | 1.5 to 5 | – | –
3 | CN(c1ccc(-c2ccc(-c3cn[nH]c3)c3cn[nH]c23)nn1)[C@@H]1C[C@H]2CC[C@@H](C1)N2 [Compound 104] | 1000 to 10000 | 6.00 to 7.00 | < 2 | > 5 | 6.00 to 7.00 | –
4 | CN(c1ccc(-c2ccc(-n3cccn3)c3cn[nH]c23)nn1)[C@@H]1C[C@H]2CC[C@@H](C1)N2 [Compound 105] | 100 to 1000 | > 7.00 | < 2 | > 5 | – | –
5 | CN(c1ccc(-c2ccc(-c3cn[nH]c3)c3ncsc23)nn1)C1CC(C)(C)NC(C)(C)C1 [Compound 132] | 100 to 1000 | 6.00 to 7.00 | < 2 | > 5 | 6.00 to 7.00 | –
6 | CN(c1ccc(-c2ccc(-c3cn[nH]c3)c3cn[nH]c23)nn1)C1CC(C)(C)NC(C)(C)C1 [Compound 137] | 100 to 1000 | 6.00 to 7.00 | < 2 | > 5 | 6.00 to 7.00 | –
7 | CN(c1ccc(-c2ccc(-c3ccc(=O)n(C)c3)c3scnc23)nn1)C1CC(C)(C)NC(C)(C)C1 [Compound 178] | > 10000 | < 5.00 | < 2 | > 5 | < 5.00 | –
8 | CC1(C)CC(Oc2ccc(-c3ccc(-c4cn[nH]c4)c4ncsc34)nn2)CCN1 (centres unmarked) [Compound 182] | 1000 to 10000 | 5.00 to 6.00 | < 2 | > 5 | 5.00 to 6.00 | –
9 | c1nc2c(-c3cn[nH]c3)ccc(-c3ccc(OC4CCNCC4)nn3)c2s1 [Compound 183] | 100 to 1000 | 6.00 to 7.00 | < 2 | > 5 | 6.00 to 7.00 | –
10 | c1nc2c(-c3cn[nH]c3)ccc(-c3ccc(O[C@@H]4C[C@H]5CC[C@@H](C4)N5)nn3)c2s1 [Compound 184] | < 100 | 6.00 to 7.00 | < 2 | > 5 | 6.00 to 7.00 | –
11 | CC1(C)CC(Nc2ccc(-c3ccc(-c4cn[nH]c4)c4ncsc34)nn2)CC(C)(C)N1 [Compound 186] | < 100 | > 7.00 | < 2 | > 5 | – | –
12 | c1nc2c(-c3cn[nH]c3)ccc(-c3ccc(N[C@@H]4C[C@H]5CC[C@@H](C4)N5)nn3)c2s1 [Compound 202] | < 100 | > 7.00 | < 2 | > 5 | – | –
13 | CCN(c1ccc(C2=CC=C(c3cn[nH]c3)C3N=CSC23)nn1)[C@@H]1C[C@H]2CC[C@@H](C1)N2 (some centres unmarked) [Compound 203] | 100 to 1000 | 6.00 to 7.00 | < 2 | > 5 | 6.00 to 7.00 | –
14 | CN(c1ccc(-c2ccc(-c3cn[nH]c3)c3ncsc23)nn1)[C@H]1C[C@]2(C)CC[C@](C)(C1)N2 [Compound 204] | < 100 | > 7.00 | < 2 | > 5 | – | –
15 | [2H]C([2H])([2H])N(c1ccc(-c2ccc(-c3cn[nH]c3)c3ncsc23)nn1)[C@@H]1C[C@H]2CC[C@@H](C1)N2 [Compound 210] | < 100 | > 7.00 | < 2 | > 5 | – | –
16 | CN(c1ccc(-c2ccc(-c3cn[nH]c3)c3ncsc23)nn1)[C@@H]1C[C@H]2CC[C@@H](C1)N2 [Compound 213] | < 100 | > 7.00 | < 2 | > 5 | – | –
17 | c1nc2c(-c3cn[nH]c3)ccc(-c3ccc(N[C@@H]4C[C@H]5CCC[C@@H](C4)N5)nn3)c2s1 [Compound 215] | < 100 | > 7.00 | < 2 | > 5 | – | –
18 | Fc1cc(-c2ccc(O[C@@H]3C[C@H]4CC[C@@H](C3)N4)nn2)c2[nH]ncc2c1-c1cn[nH]c1 [Compound 216] | < 100 | > 7.00 | < 2 | > 5 | – | –
19 | CN(c1ccc(-c2ccc(-c3cn[nH]c3)c3ncsc23)nn1)[C@@H]1C[C@H]2CCC[C@@H](C1)N2 [Compound 226] | < 100 | > 7.00 | < 2 | > 5 | – | –
20 | [2H]C([2H])([2H])N(c1ccc(-c2ccc(-c3cn[nH]c3)c3ncsc23)nn1)[C@@H]1C[C@H]2CCC[C@@H](C1)N2 [Compound 227] | < 100 | > 7.00 | < 2 | > 5 | – | –
21 | CCN(c1ccc(-c2ccc(-c3cn[nH]c3)c3ncsc23)nn1)[C@@H]1C[C@H]2CCC[C@@H](C1)N2 [Compound 228] | 100 to 1000 | > 7.00 | < 2 | > 5 | – | –
22 | CN(c1ccc(-c2ccc(-c3cnn(C)c3)c3cn[nH]c23)nn1)C1CCNCC1 [Compound 242] | > 10000 | < 5.00 | < 2 | > 5 | < 5.00 | –
23 | CN(c1ccc(-c2cc(F)c(-c3cnn(C)c3)c3cn[nH]c23)nn1)[C@@H]1C[C@H]2CC[C@@H](C1)N2 [Compound 291] | < 100 | > 7.00 | < 2 | > 5 | – | –
24 | c1n[nH]cc1-c1ccc(-c2ccc(N[C@@H]3C[C@H]4CCC[C@@H](C3)N4)nn2)c2[nH]ncc12 [Compound 294] | 100 to 1000 | 6.00 to 7.00 | < 2 | 1.5 to 5 | 6.00 to 7.00 | –
25 | CC1(C)CC(Oc2ccc(-c3cc(F)c(-c4cn[nH]c4)c4cn[nH]c34)nn2)CC(C)(C)N1 [Compound 307] | 100 to 1000 | 6.00 to 7.00 | 2 to 6 | > 5 | 6.00 to 7.00 | –
26 | c1nc2c(-c3cn[nH]c3)ccc(-c3ccc(N(C4CC4)C4C[C@H]5CCC[C@@H](C4)N5)nn3)c2s1 (some centres unmarked) [Compound 311] | < 100 | > 7.00 | < 2 | > 5 | – | –
27 | CN(c1ccc(-c2ccc(-c3cn[nH]c3)c3ncsc23)nn1)[C@H]1C[C@H]2COC[C@@H](C1)N2 [Compound 356, (endo)-N-methyl-N-{6-[4-(1H-pyrazol-4-yl)-1,3-benzothiazol-7-yl]pyridazin-3-yl}-3-oxa-9-azabicyclo[3.3.1]nonan-7-amine] | – | – | – | – | – | > 7.00
